Entries after “also recorded” stand apart in the source; their conditions may differ.
What was measured:
[1] = tested on: Colo320 DM (ecDNA+) and Colo320 HSR (ecDNA−) cells; assay: MTS cell proliferation assay, 7 days, Colo320 ecDNA+ vs ecDNA−; format: cell-based
Method: (§1) Sensitivity of an ecDNA+ (Colo320 ecDNA+) and an ecDNA− (Colo320 ecDNA−) cell line models to WEE1 inhibition was determined by treating each with increasing concentrations of either adavosertib or PD0166285 over a 7 day period. Cell proliferation was determined using a MTS assay (FIG. 27, top panels), while viability was determined using CellTiter-glo assay (FIG. 27 bottom panels).
(§2) Cell proliferation was determined using a MTS assay (FIG. 36, top panels), while viability was determined using CellTiter-glo assay (FIG. 36, bottom panels).

[2] = tested on: Colo320 ecDNA+ and Colo320 ecDNA− cells; assay: CellTiter-glo viability assay, 7 days, Colo320 ecDNA+ vs ecDNA−; format: cell-based
Method: as §1, §2

HeLa cells [3] = assay: HeLa cell confluence by high-content microscopy over three weeks, with or without 100 nM methotrexate; format: cell-based; details: for cell growth (cell confluence), agent alone / development of methotrexate resistance: three weeks; for cell growth (cell confluence), agent alone: 10 nM GDC-0575, 100 nM methotrexate, 300 nM-10 μM AZD6738; for development of methotrexate resistance: in combination with 100 nM methotrexate
Method: Cell confluence was measured via high-content microscopy over the time course.
HeLa cells were treated with a WEE1 inhibitor, 0.01-0.3 μM adavosertib alone, with 1 nM-100 nM PD0166285, with 100 nM methotrexate alone, or with a combination of 0.01-0.3 μM adavosertib and 100 nM methotrexate or a combination of 1 nM-100 nM PD0166285 and 100 nM methotrexate over the course of three weeks. Cell confluence was measured via high-content microscopy over the time course.
HeLa cells were treated with a PARG inhibitor, 3-100 μM PD00017273 with (FIG. 35 top panel) or without (FIG. 35 bottom panel) 100 nM methotrexate over the course of 3 weeks. Cell confluence was measured via high-content microscopy over the time course.
Cell confluence was measured via high-content microscopy over the time course. […] However.

[4] = tested on: Colo320 ecDNA+ (COLO320 DM) and Colo320 ecDNA− (COLO320 HSR) cells; assay: Sensitivity of Colo320 ecDNA+ and ecDNA− cells to RNR inhibitors (FIG. 12); format: cell-based; details: for induction of replication stress marker, phosphorylation at serine positions 317 and 345 of CHK1: Colo320 DM and HSR cells
HeLa cells [5] = assay: HeLa colony formation assay, resistance formation to methotrexate (FIG. 32); format: cell-based; details: 10000 cells plated with methotrexate for 21 days, IC50, 1/3 IC50, or 1/9 IC50
[6] = tested on: panel of ecDNA+ cell lines; assay: Two-week soft-agar 3D colony formation assay, adavosertib (FIG. 31); format: cell-based; details: five-point dose range, two weeks
Method: FIG. 31 illustrates sensitivity of ecDNA+ cells to inhibition of WEE1 using adavosertib in a 3-dimensional colony formation assay conducted in soft-agar. A panel of ecDNA+ cell lines were interrogated in a two-week soft agar drug sensitivity assay. All lines were treated with a five-point dose range of adavosertib for two weeks and stained with crystal violet to quantify individual colony counts.

[7] = tested on: KRASi resistant tumor cells cultured ex vivo; assay: KRASi resistant tumor cells implanted into NOD-SCID mice, tumor growth; format: in vivo; details: adagrasib 50 mg/kg orally once per day
Text: KRASi resistant tumor cells cultured ex vivo from Example 5 were implanted into NOD-SCID mice. […] Mice were implanted with the KRAS-resistant tumor cells as above.

[8] = tested on: Colo320 DM ecDNA+ and Colo320 HSR ecDNA− cells; assay: Sensitivity of Colo320 DM and Colo320 HSR to CHK1 inhibitors, seven days (FIG. 13); format: cell-based; details: CHK2 or ATM inhibition
Method: The sensitivity of an ecDNA+ cell line (Colo320 DM) compared with an ecDNA− cell line (Colo320 HSR) to four structurally distinct CHK1 inhibitors was determined.

[9] = tested on: infigratinib-resistant SNU16 cells; assay: Secondary resistance, cell growth of infigratinib-resistant SNU16 cells over 5 weeks; format: cell-based, human; details: FIG. 26, 1 uM infigratinib, 1 uM erlotinib, 10 nM gemcitabine
Method: The infigratinib-resistant SNU16 cells (generated as shown in FIG. 25) were subdivided into six groups and each group of 1×10^6 cells was subjected to treatment with 1 uM infigratinib, 1 uM erlotinib, 10 nM gemcitabine, or 1 uM erlotinib+10 nM gemcitabine and the cell growth was recorded over 5 weeks. Each treatment arm was terminated once the cell number reached 5×10^6.

SNU16 cells = assay: Long-term cell growth / resistance development in SNU16 cells; format: cell-based, human; details: for cell growth / development of primary resistance: FIG. 25, 12 weeks, 1 uM infigratinib, 1 uM erlotinib, 10 nM gemcitabine; for cell growth / resistance formation: 9 weeks
Method: Each treatment arm was terminated once the cell number reached 5×10^6.
SNU16 cells were subdivided into five groups and each group of 1×10^6 cells was subjected to treatment with 1 μM infigratinib, 1 μM erlotinib, 1 μM infigratinib and 1 μM erlotinib, 0.1 μM adavosertib and cell growth was recorded over 9 weeks.
SNU16 cells were subdivided into five groups and each group of 1×10^6 cells was subjected to treatment with infigratinib, erlotinib, PD00017273, infigratinib and erlotinib, or infigratinib and PD00017273 and cell growth was recorded over 9 weeks.
SNU16 (CRL-5974) cell line was purchased from ATCC. SNU16 cells were grown in RPMI 1640 medium (Fisher Scientific) with 10% FBS and 100 U/ml penicillin/streptomycin (Fisher Scientific). For the resistance experiments, SNU16 cells were plated at 2 million per T75 flask and were treated with either 1 μM infigratinib (Selleck Chemicals), 1 μM erlotinib (Selleck Chemicals), 10 nM gemcitabine (Sigma Aldrich), or a combination. The media was changed and fresh drug was added at least once per week. The cells were counted over the span of several weeks to measure cell growth.

[10] = tested on: ecDNA+ (Colo320 DM) and ecDNA− (Colo320 HSR) cells; assay: DNA fiber analysis, replication fork speed; format: cell-based; details: 16 hr treatment
Method: FIGS. 42A-42B show intrinsic replication fork dysfunction in ecDNA(+) cancer cells is further compromised by RNR inhibition relative to […]. […] The two cell models were then pulse-labeled with the thymidine analogues chlorodeoxyuridine (CldU) and iododeoxyuridine (IdU) for 30 min each (FIG. 42A). Cells were lysed, DNA fibers spread out and immunostained using specific antibodies against CldU and IdU. […] A difference of -0.13 kb/min in replication fork speed between ecDNA+ and […] treated with RNRi was observed. Statistical significance was calculated using nonparametric Kolmogorov-Smirnov test. FIGS. 43A-43B show intrinsic replication fork dysfunction in ecDNA+ cancer cells is further compromised by CHK1 inhibition relative to […]. […] The two cell models were then pulse-labeled with the thymidine analogues chlorodeoxyuridine (CldU) and iododeoxyuridine (IdU) for 30 min each (FIG. 43A). Cells were lysed, DNA fibers spread out and immunostained using specific antibodies against CldU and IdU.

[11] = tested on: ecDNA+ cell lines (SNU16, Colo320 DM, H716, and H2170) and ecDNA− cell lines (DLD1, Colo320 HSR, Lovo, and SW48); assay: Two-week soft-agar 3D colony formation assay, gemcitabine (FIG. 5); format: cell-based; details: five-point dose range, two weeks, colony counts
Method: A panel of ecDNA+ and ecDNA− cell lines were interrogated in a two-week soft-agar drug sensitivity assay. All lines were treated with a five-point dose range of gemcitabine for two weeks and stained with crystal violet (FIG. 5, top panel) to quantify individual colony counts by ImageJ analysis (plotted in FIG. 5, bottom panel).

KRAS amplified ecDNA = assay: KRAS ecDNA by FISH in metaphase spreads from ex vivo cultures of treated tumors; parameters: species or system murine
Method: ecDNA were measured in metaphase spreads prepared from ex vivo cultures established from tumors taken from the mice on day of sacrifice. ecDNA counts were determined using FISH for murine KRAS.
Metaphase spreads were prepared from metaphase arrested and fixed ex vivo cultures established from tumors taken from mice in treatment groups and ecDNA was visualized by FISH for murine KRAS.

[12] = tested on: CT26WT E3 G12C KRAS mutant tumor cells; assay: Treatment of CT26WT E3 G12C KRAS mutant tumors in mice, tumor growth (Examples 3 and 4); format: in vivo; details: adagrasib 50 mg/kg orally once per day
Text: (§3) Mice were implanted with CT26WT E3 G12C KRAS mutant tumor cells.
as §3

parental CT26 WT E3 line = assay: Culture of parental line with adagrasib; format: cell-based

## C[C@@H]1COCCN1c1cc(C2([S@](C)(=N)=O)CC2)nc(-c2cc[nH]c3nccc2-3)n1 [AZD6738]
[1]
  sensitivity of Colo320 ecDNA+ compared with ecDNA− cells, proliferation changes: enhanced sensitivity
[2]
  sensitivity of Colo320 ecDNA+ compared with ecDNA− cells, viability changes: enhanced sensitivity
HeLa cells [3]
  cell growth (cell confluence), agent alone: did not affect HeLa cell growth
HeLa cells [3]; with 100 nM methotrexate, 3 weeks
  synthetic lethality with methotrexate: synthetic lethality

## CN(Cc1cnc2nc(N)nc(N)c2n1)c1ccc(C(=O)N[C@@H](CCC(=O)O)C(=O)O)cc1 [methotrexate]
HeLa cells [3]
  cell growth (cell confluence), agent alone: initially resulted in little to no cell growth, but after two weeks in culture, the cells began to develop resistance and cell growth resumed

## Cc1ccc(F)c([C@@H](C)[C@H](NS(=O)(=O)c2ccc(Cl)cc2C(N)=O)c2n[nH]c(=O)o2)c1C [compound 1, 5-chloro-2-(n-((1S,2R)-2-(6-fluoro-2,3-dimethylphenyl)-1-(5-oxo-4,5-dihydro-1,3,4-oxadiazol-2-yl)propyl)sulfamoyl)benzamide]
[4]
  induction of replication stress marker, phosphorylation at serine positions 317 and 345 of CHK1: induced the replication stress marker

## C=CCn1c(=O)c2cnc(Nc3ccc(N4CCN(C)CC4)cc3)nc2n1-c1cccc(C(C)(C)O)n1 [adavosertib]
[1]
  sensitivity of Colo320 ecDNA+ compared with ecDNA− cells, proliferation changes: enhanced sensitivity
HeLa cells [5]
  resistance formation to methotrexate: abrogation of resistance formation to methotrexate
[2]
  sensitivity of Colo320 ecDNA+ compared with ecDNA− cells, viability changes: enhanced sensitivity
[6]
  sensitivity, colony counts: demonstrated sensitivity
HeLa cells [3]
  development of methotrexate resistance: prevented development of methotrexate resistance
[7]; from about 180 mm^3, adavosertib 60 mg/kg orally once per day, PD0166285 0.3 mg/kg ip once per day
  tumor growth: inhibited tumor growth

## COc1cc2nc(-c3cc(F)ccc3O)nc(N[C@@H]3CNC[C@H]3C(C)(C)O)c2cc1OC [CCT241533]
[8]
  differential sensitivity between the two lines: neither inhibiting CHK2 with CCT241533 nor inhibiting DDR target, ATM, with AZD0156 revealed any differential sensitivity

## CCN(CC)CCOc1ccc(Nc2ncc3cc(-c4c(Cl)cccc4Cl)c(=O)n(C)c3n2)cc1 [PD0166285]
[1]
  sensitivity of Colo320 ecDNA+ compared with ecDNA− cells, proliferation changes: enhanced sensitivity
[2]
  sensitivity of Colo320 ecDNA+ compared with ecDNA− cells, viability changes: enhanced sensitivity
HeLa cells [3]
  development of methotrexate resistance: abrogation of methotrexate resistance

## NC(=O)NO [hydroxyurea]
[4]
  induction of replication stress marker, phosphorylation at serine positions 317 and 345 of CHK1: induced the replication stress marker
[4]; ecDNA+ (Colo320 DM) cells, vs vehicle treated
  ecDNA copy number: markedly reduced

## C#Cc1cccc(Nc2ncnc3cc(OCCOC)c(OCCOC)cc23)c1 [erlotinib]
[9]
  cell growth / development of secondary resistance: delayed cell growth for the first two weeks, but the cells continued to grow quickly after that; also recorded: initially sensitive to EGFR inhibitor erlotinib but develop secondary resistance within three weeks
SNU16 cells
  cell growth / development of primary resistance: no effect on cell growth on its own
SNU16 cells; FIG. 30, 1 μM infigratinib, 1 μM erlotinib, 0.1 μM adavosertib
  cell growth / resistance formation: no effect on cell growth on its own
SNU16 cells; FIG. 34
  cell growth / resistance formation: little to no effect on cell growth

## COc1cccc(OCCCN)c1-c1cc(Nc2cnc(C#N)cn2)n[nH]1 [prexasertib]
[10]
  difference in replication fork speed between treated ecDNA+ and ecDNA− cells: −0.1 kb/min

## CN(C)CCCOc1ccc(-c2ccc3ncc4c(c3c2)n(C2CCOCC2)c(=O)n4C)cn1 [AZD0156]
[8]
  differential sensitivity between the two lines: neither inhibiting CHK2 with CCT241533 nor inhibiting DDR target, ATM, with AZD0156 revealed any differential sensitivity

## Nc1ccn([C@@H]2O[C@H](CO)[C@@H](O)C2(F)F)c(=O)n1 [gemcitabine]
[11]
  fold enhanced sensitivity of ecDNA+ cell lines compared with ecDNA− cell lines: 5-10 fold
[9]
  cell growth / development of secondary resistance: delayed cell growth for the first two weeks, but the cells continued to grow quickly after that
KRAS amplified ecDNA; Example 3, tumors at day of sacrifice (D21 or D16)
  KRAS ecDNA level: no KRAS amplified ecDNA was seen
KRAS amplified ecDNA; Example 4
  ecDNA copy number per metaphase spread where ecDNA present: 1-3 per metaphase spread
KRAS amplified ecDNA; Example 4, treatment group 3
  metaphase spreads with little to no ecDNA: 78/95
[4]
  induction of replication stress marker, phosphorylation at serine positions 317 and 345 of CHK1: induced the replication stress marker
[10]
  difference in replication fork speed between treated ecDNA+ and ecDNA− cells: −0.13 kb/min
[7]; from 290 mm^3, gemcitabine 10 mg/kg ip every other day
  tumor growth: inhibited tumor growth
[12]; Example 3, from average volume 350 mm^3, gemcitabine 10 mg/kg ip every other day or 120 mg/kg ip once per week
  tumor growth: only KRASi (adagrasib) resulted in a significant delay in tumor growth
[12]; Example 4, gemcitabine 10 or 20 mg/kg ip every other day
  tumor growth: substantial tumor growth
SNU16 cells
  cell growth / development of primary resistance: delayed cell growth for the first two weeks, but the cells continued to grow quickly after that

## C=C(F)C(=O)N1CCN(c2nc(OC[C@@H]3CCCN3C)nc3c2CCN(c2cccc4cccc(Cl)c24)C3)C[C@@H]1CC#N [adagrasib]
[12]; Example 3
  day by which tumors began to exhibit resistance and tumor growth resumed: ≤ 14 days
[12]; Example 4
  delay in tumor growth before tumors developed resistance: about 2 weeks
Parental CT26 WT E3 line
  sensitivity to the drug in culture: remained sensitive to the drug

— patent US11642345B2, “Replication stress pathway agent compositions and methods for treating cancer” (Boundless Bio, Inc., priority 2020, dated 2023)
